Results from US20260232767A1, “INTERLEUKIN-23 RECEPTOR ANTAGONIST PEPTIDES FOR USE IN THE TREATMENT OF PSORIASIS” (Janssen Pharmaceutica NV, priority 2023, published 2026).

Assays:
Assay type in all cases: in vivo, human
[1] = test system: subjects with moderate-to-severe plaque psoriasis; test: DLQI, Example 1; conditions: each dose group vs placebo; Week 16
From the text: The Dermatological Life Quality Index (DLQI) is a dermatology-specific health-related quality of life (HRQoL) instrument designed to assess the impact of the disease on a participant's HRQoL. It is a 10-item questionnaire that assesses HRQoL over the past week and in addition to evaluating overall HRQoL, can be used to assess 6 different aspects that may affect quality of life: symptoms and feelings, daily activities, leisure, work or school performance, personal relationships, and treatment. The total score ranges from 0 to 30 with a higher score indicating greater impact on quality of life (QoL).
Efficacy, PK, immunogenicity, biomarker, pharmacogenomic, and safety criteria were measured during the treatment. Subjects were provided with an electronic device to enter patient-reported outcome (PRO) data at each study visit. All visit-specific PRO assessments were conducted/completed before any tests, procedures or other clinical assessments, with the exception of the urine pregnancy test and urinalysis, to prevent influencing subject perceptions.

IL-22 = test: Serum IL-22 immunoassay; conditions: all treatment groups relative to placebo
Procedure: To evaluate psoriasis relevant systemic biomarkers (Beta-defensin 2 (BD-2), IL-17A, IL-17F, and IL-22), protein concentrations were measured in serum using validated immunoassays. The IL-17A (Catalog #03-0159-00) and IL-17F (Catalog #03-0164-00) assays used are commercially available SMC™-based high sensitivity immunoassays produced by the EMD Millipore Corporation. The manufacturer's protocols were followed and analyzed on the Erenna® instrument platform except for the use of 11 μL Elution Buffer B. While the IL-22 assay is also based on the SMC™ platform and run on the Erenna instrument, the assay was developed internally as a coated plate-based assay. The development and optimization of the BD-2 assay was done on the Meso Scale Discovery on the electrochemiluminescence-based platform, a division of Meso Scale Diagnostics LLC (MSD). For all assays, concentration adjustments were made to values measuring below empirically defined LLOQ or empirically defined ULOQ values. Assay QC verified performance of generated standard curves (average concentration recovery & CV of technical replicates) and control samples (inter-assay plate agreement (CV)).
Serum levels of psoriasis disease biomarkers BD-2, IL-22, IL-17A, and IL-17F relative to baseline were analyzed in patients who received placebo or the compound of Formula (I) and compared to clinical response. […]

[2] = test system: subjects with moderate-to-severe plaque psoriasis; test: BSA, Example 1; conditions: each dose group vs placebo; Week 16
From the text: Subjects suitable for the method of the present invention satisfy one or more criteria for inclusion, as described below. In some embodiments, the present invention relates to the method and/or use, where the subject has a psoriasis effected Body Surface Area (BSA) of at least 10% before the start of treatment. Herein the term BSA will mean the measure of the percentage of total area of your body affected by psoriasis.
Clinician-reported outcomes including Psoriasis Area and Severity Index (PASI), Body Surface Area (BSA), Investigator's Global Assessment (IGA), Nail Psoriasis Area and Severity Index (NAPSI), Fingernail Physician's Global Assessment (f-PGA), Static Physician's Global Assessment of Genitalia (s-PGA-G), Physician's Global Assessment of Hands and/or Feet (hf-PGA), and Scalp Specific Investigator Global Assessment (ss-IGA) were obtained at Week 0, 8, and 16. PASI and IGA were also obtained at Weeks 1, 2, 4, and 12, and at Week 20, four weeks after the administration of the tablets has stopped.

CC(=O)NCCCC[C@@H]1NC(=O)[C@H](Cc2c[nH]c3c(C)cccc23)NC(=O)[C@H]([C@@H](C)O)NC(=O)[C@H](CC(N)=O)NC(=O)[C@@H](NC(C)=O)C(C)(C)SSC(C)(C)[C@@H](C(=O)N[C@@H](Cc2ccc(OCCN)cc2)C(=O)N[C@@H](Cc2ccc3ccccc3c2)C(=O)NC2(C(=O)N[C@@H](CCC(=O)O)C(=O)N[C@@H](CC(N)=O)C(=O)N[C@@H](Cc3cccnc3)C(=O)N(C)CC(N)=O)CCOCC2)NC1=O [IL-23 receptor antagonist peptide, Ac-[Pen]*-N-T-[W(7-Me)]-[Lys(Ac)]-[Pen]*-Phe[4-(2-aminoethoxy)]-[2-Nal]-[THP]-E-N-[3-Pal]-Sarc-NH2 (*[Pen]-[Pen]* formdisulfidebond)]
Proportion achieving DLQI score of 0 or 1 [1]: significantly higher | IL-22 serum levels (IL-22): statistically significant reduction | Improvement (reduction) in BSA from baseline [2]: significantly greater improvement
